# From US20190374509A1, “Methods of Using Metamizole for Treatment of Pyrexia in Equines” (Kindred Biosciences, Inc., priority 2018, published 2019)
# Tested on: horses
# Assay: Margin of safety study, IV three times daily for 9 days: clinical pathology (serum chemistry, hematology, urinalysis), body weight, physical examination
# Format: in vivo
# Protocol: A study was conducted to evaluate the margin of safety of metamizole when administered intravenously to horses for 9 days at doses of 0 mg/kg (0×), 30 mg/kg (1×), 60 mg/kg (2×), and 90 mg/kg (3×) of body weight three times daily (TID), every 8 hours±30 min.
# This was a prospective, blinded, randomized, placebo-controlled, parallel-group laboratory study in research horses. Thirty-two horses were enrolled in the study (Table 1).
# Treatment phase involved administration of the investigational drug or placebo. The investigational drug was a sterile injectable formulation of dipyrone (Zimeta™, Corden Pharma, Caponago, Italy) (500 mg/mL) in 100 mL glass bottles. The placebo was sterile injectable saline (Nova-Tech Inc, Grand Island, NE) (0.9% sodium chloride) in 500 mL plastic bottles labeled for veterinary use. Dipyrone treatment groups were 30 mg/kg (1×), 60 mg/kg (2×), and 90 mg/kg (3×). Placebo treatment group was saline administered at a volume to match the 3× dipyrone group (0×). The dose was calculated based on body weight and administered three times daily for nine consecutive days. Due to the large volume of injection at the higher dose groups, treatment was administered via indwelling intravenous (IV) catheters. Intravenous catheters were placed using standard techniques. Horses were sedated with xylazine (AnaSed® LA, VetOne, MWI, Boise, Id.) and the skin was desensitized with subcutaneous injection of lidocaine (VetOne, MWI, Boise, Id.). Intravenous catheters were replaced at the discretion of the study director and were maintained with heparinized saline flush prior to and following dose administration.
# Randomization occurred on Study Day −1. […] .
# All statistical analyses were performed using SAS, version 9.4 (SAS Institute, Cary, N.C.). The individual horse was the experimental unit in the statistical analysis. For statistical modeling, all main effects, interaction terms, and pairwise comparisons of the active groups (dipyrone) with the placebo group were assessed at the two-sided 0.10 significance level (unadjusted) with the exception of the three-way interaction, which was assessed at the two-sided 0.05 significance level (unadjusted).
# For continuous endpoints with repeated post-treatment measurements (serum chemistry, coagulation, hematology, urinalysis, body weight, body temperature, heart rate and respiratory rate), repeated measurement analysis of covariance (SAS MIXED procedure RMANCOVA) was used to evaluate a model including treatment, time, sex, treatment by sex interaction, treatment by time interaction, and treatment by time by sex three-way interaction as fixed effects. In addition, baseline values were included as a covariate and remained in the model regardless of its significance. Baseline values were defined as the values prior to and nearest to the first dosing.
# [1] = 1X, 30 mg/kg IV every 8 hours, Day 4
# [2] = 1X, 30 mg/kg IV every 8 hours, Day 8
# [3] = 1X, 30 mg/kg IV every 8 hours, Mares
# [4] = 2X, 60 mg/kg IV every 8 hours, Day 4
# [5] = 2X, 60 mg/kg IV every 8 hours, Day 8
# [6] = 2X, 60 mg/kg IV every 8 hours, Mares
# [7] = 3X, 90 mg/kg IV every 8 hours, Day 4
# [8] = 3X, 90 mg/kg IV every 8 hours, Day 8
# [9] = 3X, 90 mg/kg IV every 8 hours, Mares
structure (smiles),measurement,setting,value
"Cc1c(N(C)CS(=O)(=O)O)c(=O)n(-c2ccccc2)n1C [dipyrone, [(2,3-dihydro-1,5-dimethyl-3-oxo-2-phenyl-1H-pyrazol-4-yl)methylamino] methanesulfonic acid]",Absolute Basophil Count Day 4 Range,[1],0.00-0.19 cells 10^3/μL
same,Cholesterol Day 4 Range,[1],54 to 77 mg/dL
same,Cholesterol LS Means,[1],65.352 mg/dL
same,Creatinine Day 4 Range,[1],0.9 to 2.0 mg/dL
same,Mean Corpuscular Hemoglobin Concentration Day 4 Range,[1],34.9 to 36.1 g/dL
same,Mean Corpuscular Volume Day 4 Range,[1],40.8 to 48.7 fL
same,Mean Corpuscular Volume LS Means,[1],46.512 fL
same,Percent Basophil Day 4 Range,[1],0.0-2.3%
same,Total Bilirubin Day 4 Range,[1],0.8 to 3.4 mg/dL
same,Total Bilirubin LS Means,[1],2.301 mg/dL
same,Absolute Basophil Count Day 8 Range,[2],0.00-0.52 cells 10^3/μL
same,Cholesterol Day 8 Range,[2],64 to 87 mg/dL
same,Creatinine Day 8 Range,[2],0.6 to 1.6 mg/dL
same,Creatinine LS Means,[2],1.118 mg/dL
same,Mean Corpuscular Hemoglobin Concentration Day 8 Range,[2],34.1 to 39.4 g/dL
same,Mean Corpuscular Hemoglobin Concentration LS Means,[2],35.513 g/dL
same,Mean Corpuscular Volume Day 8 Range,[2],40.8 to 49.3 fL
same,Mean Corpuscular Volume LS Means,[2],47.000 fL
same,Percent Basophil Day 8 Range,[2],0.0-2.6%
same,Total Bilirubin Day 8 Range,[2],1.7 to 4.1 mg/dL
same,Total Bilirubin LS Means,[2],2.914 mg/dL
same,Percent Basophil LS Means,"1X, 30 mg/kg IV every 8 hours, Geldings",0.849%
same,Absolute Basophil Count LS Means,[3],0.200 cells 10^3/μL
same,Percent Basophil LS Means,[3],1.374%
same,Absolute Basophil Count Day 4 Range,[4],0.00-0.12 cells 10^3/μL
same,Cholesterol Day 4 Range,[4],43 to 74 mg/dL
same,Cholesterol LS Means,[4],56.772 mg/dL
same,Creatinine Day 4 Range,[4],1.1 to 2.0 mg/dL
same,Mean Corpuscular Hemoglobin Concentration Day 4 Range,[4],34.2 to 36.1 g/dL
same,Mean Corpuscular Volume Day 4 Range,[4],41.7 to 49.4 fL
same,Mean Corpuscular Volume LS Means,[4],46.284 fL
same,Percent Basophil Day 4 Range,[4],0.0-1.3%
same,Total Bilirubin Day 4 Range,[4],1.6 to 4.0 mg/dL
same,Total Bilirubin LS Means,[4],2.745 mg/dL
same,Absolute Basophil Count Day 8 Range,[5],0.00-0.21 cells 10^3/μL
same,Cholesterol Day 8 Range,[5],52 to 87 mg/dL
same,Creatinine Day 8 Range,[5],0.6 to 1.4 mg/dL
same,Creatinine LS Means,[5],0.958 mg/dL
same,Mean Corpuscular Hemoglobin Concentration Day 8 Range,[5],32.9 to 35.5 g/dL
same,Mean Corpuscular Hemoglobin Concentration LS Means,[5],34.080 g/dL
same,Mean Corpuscular Volume Day 8 Range,[5],43.2 to 50.8 fL
same,Mean Corpuscular Volume LS Means,[5],47.134 fL
same,Percent Basophil Day 8 Range,[5],0.0-2.7%
same,Total Bilirubin Day 8 Range,[5],1.6 to 6.1 mg/dL
same,Total Bilirubin LS Means,[5],4.495 mg/dL
same,Percent Basophil LS Means,"2X, 60 mg/kg IV every 8 hours, Geldings",0.949%
same,Absolute Basophil Count LS Means,[6],0.059 cells 10^3/μL
same,Percent Basophil LS Means,[6],0.520%
same,Absolute Basophil Count Day 4 Range,[7],0.00-0.39 cells 10^3/μL
same,Cholesterol Day 4 Range,[7],43 to 73 mg/dL
same,Cholesterol LS Means,[7],54.144 mg/dL
same,Creatinine Day 4 Range,[7],1.1 to 2.1 mg/dL
same,Mean Corpuscular Hemoglobin Concentration Day 4 Range,[7],34.3 to 36.0 g/dL
same,Mean Corpuscular Volume Day 4 Range,[7],43.0 to 50.4 fL
same,Mean Corpuscular Volume LS Means,[7],46.560 fL
same,Percent Basophil Day 4 Range,[7],0.0-4.0%
same,Total Bilirubin Day 4 Range,[7],1.7 to 5.5 mg/dL
same,Total Bilirubin LS Means,[7],3.074 mg/dL
same,Absolute Basophil Count Day 8 Range,[8],0.00-0.41 cells 10^3/μL
same,Cholesterol Day 8 Range,[8],55 to 96 mg/dL
same,Creatinine Day 8 Range,[8],0.7 to 1.6 mg/dL
same,Creatinine LS Means,[8],1.144 mg/dL
same,Mean Corpuscular Hemoglobin Concentration Day 8 Range,[8],33.1 to 34.5 g/dL
same,Mean Corpuscular Hemoglobin Concentration LS Means,[8],33.899 g/dL
same,Mean Corpuscular Volume Day 8 Range,[8],43.8 to 51.3 fL
same,Mean Corpuscular Volume LS Means,[8],47.708 fL
same,Percent Basophil Day 8 Range,[8],0.0-2.1%
same,Total Bilirubin Day 8 Range,[8],2.8 to 6.2 mg/dL
same,Total Bilirubin LS Means,[8],4.579 mg/dL
same,Percent Basophil LS Means,"3X, 90 mg/kg IV every 8 hours, Geldings",0.924%
same,Absolute Basophil Count LS Means,[9],0.188 cells 10^3/μL
same,Percent Basophil LS Means,[9],1.731%
same,"Urinalysis, body weights, and physical examination parameters","30, 60, 90 mg/kg IV every 8 hours for 9 days vs placebo",No significant differences
